According to patent US8008337B2, “Azabicyclo[3.2.0] hept-3-yl compounds, a process for their preparation and pharmaceutical compositions containing them” (Les Laboratoires Servier, priority 2009, dated 2011):

How the values were obtained:
Type in all cases: in vivo
Wistar rat [1] = assay: Interaction with barbital in the Wistar rat; conditions: 10 mg/kg PO 30 minutes before barbital 170 mg/kg IP, sleep measured for 4 hours
Experimental: The objective of this test is to determine the anti-sedative, awakening and/or anti-hypnotic properties of the compounds of the present invention. The rats are placed in individual cages and are given an injection of barbital (170 mg/kg IP). The duration of sleep is then measured for 4 hours after the injection of barbital, determined on the basis of loss of the righting reflex. The compounds of the invention or their carriers are administered by the oral route 30 minutes before the administration of barbital.

[2] = test system: extracellular levels of dopamine; assay: Intracerebral microdialysis in the striatum of the awake rat; conditions: 10 mg/kg i.p., striatum microdialysate, awake Wistar rat
Experimental: Intracerebral microdialysis in the awake rat makes it possible to assess the influence of a compound on the release of neurotransmitters such as dopamine into the extracellular space of small cerebral structures, especially the striatum.
This technique is carried out in two steps: a surgery step (stereotaxic implantation of a cannula-guide carried out on the anaesthetised animal) and a microdialysis step carried out on the awake animal (collection of samples of extracellular cerebral liquid). Male rats of the Wistar strain (280-320 g) are anaesthetised and placed in a stereotaxic apparatus. A guide cannula is implanted in the striatum of the animals according to the following stereotaxic coordinates: antero-posteriority −1 mm, laterality +2.8 mm, depth −3 mm, relative to the bregma, according to the atlas of Paxinos and Watson (1996). One week after the surgery, a microdialysis probe (CMA11, length 4 mm, Phymep) is inserted into the guide cannula. The animals are placed in experimentation cages and the to probe inlet is connected to a pump continuously perfusing artificial cerebrospinal fluid (flow rate 1 μl/min). […] The extracellular levels of dopamine are assessed in each microdialysate using a liquid chromatographic technique coupled with electrochemical detection. The values are expressed as the mean±SEM relative to the baseline values (reference 100%).

awake Wistar rat = assay: Electroencephalogram recordings in the awake Wistar rat; conditions: 3 mg/kg IP, cortical EEG
Experimental: Electrodes are chronically implanted in adult male Wistar rats, being located at the surface of the frontal and parietal cortex. Cortical electroencephalogram (EEG) recordings are made in the rats placed in cages in a sound-proofed room. The compounds and carriers are administered in randomised manner by the intraperitoneal route at 10 o'clock on the same days with a minimum of 3 days between each administration, allowing each rat to be used as its own control. The absolute power of the slow delta activities (1-4 Hz), which predominate during slow sleep and disappear during wakefulness and paradoxical sleep, is averaged over successive periods of 30 minutes. Over 30 minutes, high and low values for the power of the slow delta activities are signs of […], respectively.

Wistar rat [3] = assay: Social recognition in the Wistar rat; conditions: second encounter after 2 hours
Excerpt: Initially described in 1982 (J. Comp. Physiol., 1982, 96, 1000-1006), the social recognition test has subsequently been proposed by various authors (Psychopharmacology, 1987, 91, 363-368; Psychopharmacology, 1989, 97, 262-268) for studying the mnemocognitive effects of new compounds. The test is based on the natural expression of the olfactory memory of the rat and its natural tendency to forget and allows evaluation of memorisation, by recognition of a young congeneric animal, by an adult rat. A young rat (21 days), taken at random, is placed for 5 minutes in the cage housing an adult rat. With the aid of a video device, the experimenter observes the social recognition behaviour of the adult rat and measures its overall duration. The young rat is then removed from the adult rat's cage and is placed in its own cage until the second introduction. The adult rat is given the compound under test by the intraperitoneal route and, after 2 hours, is again brought into the presence (5 minutes) of the young rat. The social recognition behaviour is then observed again and its duration measured. The assessment criterion is the difference (T2−T1), expressed in seconds, between the “recognition” times of the 2 encounters.

Sprague-Dawley rat = assay: Object recognition in the Sprague-Dawley rat; conditions: 3 mg/kg PO 60 minutes before each session, second session 24 hours later
Excerpt: The object recognition test in the Sprague-Dawley rat (Behav. Brain Res., 1988, 31, 47-59) is based on the spontaneous exploratory activity of the animal and has the characteristics of episodic memory in humans. This memory test is sensitive to ageing (Eur. J. Pharmacol., 1997, 325, 173-180) and to cholinergic dysfunctions (Pharm. Biochem. Behav. 1996, 53(2), 277-283) and is based on the differences in the exploration of 2 objects of fairly similar shape—one familiar, the other new. Prior to the test, the animals are habituated to the environment (an enclosure without an object). In the course of a first session, the rats are placed (3 minutes) in the enclosure, in which there are 2 identical objects. The duration of exploration is measured for each object. In the course of the second session (3 minutes), 24 hours later, 1 of the 2 objects is replaced by a new object. The duration of exploration is measured for each object. The assessment criterion is the difference, Delta, expressed in seconds, between the exploration times for the new object and for the familiar object in the course of the second session.

NMRI mouse = assay: Tail suspension test in the NMRI mouse; conditions: 10 mg/kg IP, 24 hours and 30 minutes before suspension, 6 minutes
Experimental: The tail suspension test in the mouse (Porsolt et al., Arch. Int. Pharmacodyn., 1987, 288, 11) enables detection of psychopharmacological properties of compounds. NMRI mice are suspended by the tail, with the aid of a piece of adhesive tape, from a hook for 6 minutes: the immobility time is measured automatically with the aid of movement sensors. The animals are treated, by the intraperitoneal route, with the compounds of the invention or their carriers 24 hours and 30 minutes before they are suspended.

For Cl.NC(=O)c1ccc(OCCCN2C[C@H]3CC[C@H]3C2)cc1 [Example 1, 4-{3-[(1R,5S)-3-Azabicyclo[3.2.0]hept-3-yl]-propoxy}benzamide hydrochloride], the “reduction of the duration of sleeping caused by barbital” value (Wistar rat [1]) was −81%, the “increase in endogenous cerebral concentrations of dopamine (in comparison with basal values)” value [2] was “+123%” and the “duration of reduction in power of the slow delta waves” value (awake Wistar rat) was 120 min. For the same molecule, the “effect on power of the slow delta waves (1-4 Hz)” value (awake Wistar rat) was “significant reduction”, the “difference (T2−T1) between recognition times” value (Wistar rat [3]; 1 mg/kg IP) was 24 s and the “difference (T2−T1) between recognition times” value (Wistar rat [3]; 3 mg/kg IP) was 36 s. The “difference, Delta, between exploration times for the new and the familiar object” value (Sprague-Dawley rat) was about 8 s and the “increase in the immobility time” value (NMRI mouse) was 119%.
